Results from patent US4345938A, “Herbicidal 2-haloacetanilides” (Monsanto Company, priority 1980, dated 1982).
Read-outs that look alike come from different tables or passages of the source.

Legend:
Cyperus serotinus [1] = assay: Field transplant rice test, applied 9 DAT, CS; type: in vivo; details: for inhibition at 375 g/ha / inhibition at 750 g/ha / inhibition at 1500 g/ha / inhibition at 3000 g/ha: Cyperus serotinus, 216 h, read-out: Percent Inhibition, CS; for inhibition at 375 g/ha: 0.375 Kg/Ha; for inhibition at 750 g/ha: 0.75 Kg/Ha; for inhibition at 1500 g/ha: 1.5 Kg/Ha; for inhibition at 3000 g/ha: 3.0 Kg/Ha
Summary of the method: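 Field test in transplanted rice, herbicides applied as granules (2.5% or 5.0% w/w active) 9 days after transplant at 3.0 down to 0.375 kg/ha. Weed control observed weekly from 3 to 7 weeks after transplant.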

Rice = assay: Greenhouse transplant rice test, rice injury; type: in vivo, Rice (Bluebelle); details: Oryza sativa, about 3 WAT, read-out: Percent Inhibition, Rice
From the text: (§1) The test procedure used in this greenhouse test is as follows: Ray silt loam top soil containing about 0.05% by weight of krillium and sifted through a […] screen is fumigated about 5-10 days prior to use. Pots are then filled with said Ray silt loam soil to a level to allow for a 1 in. (2.54 cm) flooding depth. Rice plants (Bluebelle) of 2 to 3 weeks age are transplanted to the pots and bulbs or seeds of the test weeds also planted in the pots. The pots are then flooded and the test chemical applied to the surface of the flood water. The flood water is reduced to allow for germination of the Echinochloa crus-galli (barnyardgrass) seed and subsequently reflooded and maintained in that condition. Observations of percent inhibition using a scale of 0-100% are made about 3 weeks after transplant (WAT).
(§2) The test data in Table III for all compounds was obtained under identical test conditions. The weeds used in the tests herein have the following abbreviations in the tables: Echinochloa crus-galli (EC), Monochloria vaginalis (MV), Cyperus Serotinus (CS), Eleocharis Kuroguwai (EK) and Sagittaria trifolia (ST).

Eleocharis kuroguwai = assay: Greenhouse transplant rice test, EK; type: in vivo; details: about 3 WAT, read-out: Percent Inhibition, EK
From the text: as §1, §2

Monochoria vaginalis [2] = assay: Greenhouse transplant rice test, MV; type: in vivo; details: Pontederia vaginalis, about 3 WAT, read-out: Percent Inhibition, MV
From the text: as §1, §2

Cyperus serotinus [3] = assay: Field transplant rice test, applied 0 DAT, CS; type: in vivo; details: 0 h, read-out: Percent Inhibition, CS; for inhibition at 375 g/ha: 0.375 Kg/Ha; for inhibition at 750 g/ha: 0.75 Kg/Ha; for inhibition at 1500 g/ha: 1.5 Kg/Ha; for inhibition at 3000 g/ha: 3.0 Kg/Ha
Summary of the method: (§3)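 Field test in transplanted rice, herbicide applied as granules (2.5% or 5.0% w/w active) at transplanting (0 DAT). Rates from 3.0 kg/ha down to 0.375 kg/ha. Weed control observed weekly from 2 to 6 weeks after transplant, reported at 2, 4 and 6 WAT.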

Sagittaria trifolia = assay: Field transplant rice test, applied 0 DAT, ST; type: in vivo; details: 0 h, read-out: Percent Inhibition, ST; for inhibition at 375 g/ha: 0.375 Kg/Ha; for inhibition at 750 g/ha: 0.75 Kg/Ha; for inhibition at 1500 g/ha: 1.5 Kg/Ha; for inhibition at 3000 g/ha: 3.0 Kg/Ha
Summary of the method: as §3

Monochoria vaginalis [4] = assay: Field transplant rice test, applied 0 DAT, MV; type: in vivo; details: Pontederia vaginalis, 0 h, read-out: Percent Inhibition, MV; for inhibition at 375 g/ha: 0.375 Kg/Ha; for inhibition at 750 g/ha: 0.75 Kg/Ha; for inhibition at 1500 g/ha: 1.5 Kg/Ha; for inhibition at 3000 g/ha: 3.0 Kg/Ha
Summary of the method: as §3

`CCCCOCN(C(=O)CCl)c1c(CC)cccc1CC` [Compound A, 2',6'-diethyl-N-(n-butoxymethyl)-2-chloroacetanilide] showed an inhibition at 375 g/ha (Cyperus serotinus [1]; 3 WAT) of 80%, an inhibition at 375 g/ha (Cyperus serotinus [1]; 5 WAT) of 33% and an inhibition at 375 g/ha (Cyperus serotinus [1]; 7 WAT) of 67%. It also gave an inhibition at 750 g/ha (Cyperus serotinus [1]; 3 WAT) of 70%, an inhibition at 750 g/ha (Cyperus serotinus [1]; 5 WAT) of 50% and an inhibition at 750 g/ha (Cyperus serotinus [1]; 7 WAT) of 38%. It also gave an inhibition at 1500 g/ha (Cyperus serotinus [1]; 3 WAT) of 100%, an inhibition at 1500 g/ha (Cyperus serotinus [1]; 5 WAT) of 100% and an inhibition at 1500 g/ha (Cyperus serotinus [1]; 7 WAT) of 100%. The inhibition at 3000 g/ha (Cyperus serotinus [1]; 3 WAT) was 88%, the inhibition at 3000 g/ha (Cyperus serotinus [1]; 5 WAT) was 100% and the inhibition at 3000 g/ha (Cyperus serotinus [1]; 7 WAT) was 100%. For the same compound, the “selectivity factor (GR15/GR85), CS in transplant rice” value (Cyperus serotinus [1]; between 3 WAT and 7 WAT) was 2, the inhibition at 280 g/ha (Rice; 0.28 Kg/Ha) was 5% and the inhibition at 560 g/ha (Rice; 0.56 Kg/Ha) was 10%. For the same compound, the inhibition at 1120 g/ha (Rice; 1.12 Kg/Ha) was 10%, the inhibition at 2240 g/ha (Rice; 2.24 Kg/Ha) was 15% and the inhibition at 280 g/ha (Eleocharis kuroguwai; 0.28 Kg/Ha) was 50%. The inhibition at 560 g/ha (Eleocharis kuroguwai; 0.56 Kg/Ha) was 100%, the inhibition at 1120 g/ha (Eleocharis kuroguwai; 1.12 Kg/Ha) was 100% and the inhibition at 2240 g/ha (Eleocharis kuroguwai; 2.24 Kg/Ha) was 100%. For the same compound, the inhibition at 280 g/ha (Monochoria vaginalis [2]; 0.28 Kg/Ha) was 98%, the inhibition at 560 g/ha (Monochoria vaginalis [2]; 0.56 Kg/Ha) was 100% and the inhibition at 1120 g/ha (Monochoria vaginalis [2]; 1.12 Kg/Ha) was 100%. The inhibition at 2240 g/ha (Monochoria vaginalis [2]; 2.24 Kg/Ha) was 100%, the inhibition at 375 g/ha (Cyperus serotinus [3]; 2 WAT) was 67% and the inhibition at 375 g/ha (Cyperus serotinus [3]; 4 WAT) was 67%. It also gave an inhibition at 375 g/ha (Cyperus serotinus [3]; 6 WAT) of 63%, an inhibition at 750 g/ha (Cyperus serotinus [3]; 2 WAT) of 95% and an inhibition at 750 g/ha (Cyperus serotinus [3]; 4 WAT) of 93%. The inhibition at 750 g/ha (Cyperus serotinus [3]; 6 WAT) was 93%, the inhibition at 1500 g/ha (Cyperus serotinus [3]; 2 WAT) was 90% and the inhibition at 1500 g/ha (Cyperus serotinus [3]; 4 WAT) was 82%. For the same compound, the inhibition at 1500 g/ha (Cyperus serotinus [3]; 6 WAT) was 77%, the inhibition at 3000 g/ha (Cyperus serotinus [3]; 2 WAT) was 73% and the inhibition at 3000 g/ha (Cyperus serotinus [3]; 4 WAT) was 68%. It also gave an inhibition at 3000 g/ha (Cyperus serotinus [3]; 6 WAT) of 50%, an inhibition at 375 g/ha (Sagittaria trifolia; 2 WAT) of 37% and an inhibition at 375 g/ha (Sagittaria trifolia; 4 WAT) of 22%. It also gave an inhibition at 375 g/ha (Sagittaria trifolia; 6 WAT) of 7%, an inhibition at 750 g/ha (Sagittaria trifolia; 2 WAT) of 52% and an inhibition at 750 g/ha (Sagittaria trifolia; 4 WAT) of 20%. It also gave an inhibition at 750 g/ha (Sagittaria trifolia; 6 WAT) of 15%, an inhibition at 1500 g/ha (Sagittaria trifolia; 2 WAT) of 60% and an inhibition at 1500 g/ha (Sagittaria trifolia; 4 WAT) of 33%. The inhibition at 1500 g/ha (Sagittaria trifolia; 6 WAT) was 20%, the inhibition at 3000 g/ha (Sagittaria trifolia; 2 WAT) was 42% and the inhibition at 3000 g/ha (Sagittaria trifolia; 4 WAT) was 33%. It also gave an inhibition at 3000 g/ha (Sagittaria trifolia; 6 WAT) of 12%, an inhibition at 375 g/ha (Monochoria vaginalis [4]; 2 WAT) of 98% and an inhibition at 375 g/ha (Monochoria vaginalis [4]; 4 WAT) of 87%. It also gave an inhibition at 375 g/ha (Monochoria vaginalis [4]; 6 WAT) of 82%, an inhibition at 750 g/ha (Monochoria vaginalis [4]; 2 WAT) of 100% and an inhibition at 750 g/ha (Monochoria vaginalis [4]; 4 WAT) of 98%. The inhibition at 750 g/ha (Monochoria vaginalis [4]; 6 WAT) was 100%, the inhibition at 1500 g/ha (Monochoria vaginalis [4]; 2 WAT) was 100% and the inhibition at 1500 g/ha (Monochoria vaginalis [4]; 4 WAT) was 100%. The inhibition at 1500 g/ha (Monochoria vaginalis [4]; 6 WAT) was 100%, the inhibition at 3000 g/ha (Monochoria vaginalis [4]; 2 WAT) was 100% and the inhibition at 3000 g/ha (Monochoria vaginalis [4]; 4 WAT) was 100%. For the same compound, the inhibition at 3000 g/ha (Monochoria vaginalis [4]; 6 WAT) was 100%.
